In BindingDB's records for doi:10.1021/jm000497n (Welfide, 2001):

Molecular target: Chymotrypsin A (Bos taurus)
Experiment: In vitro inhibitory activity was determined against bovine pancreas chymotrypsin

Ki	Structure (SMILES)
1430 nM	Cc1cccc(-c2ncc(N)c(=O)n2CC(=O)NC(Cc2ccccc2)C(=O)C(F)(F)C(=O)NCCC(=O)O)c1 (centres undefined) [3-{4-[2-(5-Amino-6-oxo-2-m-tolyl-6H-pyrimidin-1-yl)-acetylamino]-2,2-difluoro-3-oxo-5-phenyl-pentanoylamino}-propionic acid]
1920 nM	Cc1cccc(-c2ncc(N)c(=O)n2CC(=O)NC(Cc2ccccc2)C(=O)C(F)(F)C(=O)NCc2ccccc2)c1 (centres undefined) [4-[2-(5-Amino-6-oxo-2-m-tolyl-6H-pyrimidin-1-yl)-acetylamino]-2,2-difluoro-3-oxo-5-phenyl-pentanoic acid benzylamide]
1440 nM	Cc1cccc(-c2ncc(N)c(=O)n2CC(=O)NC(Cc2ccccc2)C(=O)C(F)(F)C(=O)NCC(N)=O)c1 (centres undefined) [4-[2-(5-Amino-6-oxo-2-m-tolyl-6H-pyrimidin-1-yl)-acetylamino]-2,2-difluoro-3-oxo-5-phenyl-pentanoic acid carbamoylmethyl-amide]
3280 nM	Nc1cnc(-c2ccc(F)cc2)n(CC(=O)NC(Cc2ccccc2)C(=O)C(F)(F)C(=O)NCc2ccccc2)c1=O (centres undefined) [4-{2-[5-Amino-2-(4-fluoro-phenyl)-6-oxo-6H-pyrimidin-1-yl]-acetylamino}-2,2-difluoro-3-oxo-5-phenyl-pentanoic acid benzylamide]
